Experimental data as given in article PMC12303054, “First-in-class inhibitors of Nsp15 endoribonuclease of SARS-CoV-2: Modeling, synthesis, and enzymatic assay of thiazolidinedione and rhodanine analogs” (The Journal of Biological Chemistry, 2025).

Assays:
Assay type in all cases: biochemical
Conditions in all cases: 100 µM
[1] = molecular target: Tyr343Ala SARS-CoV-2 Nsp15 (Severe acute respiratory syndrome coronavirus 2, UniProt P0DTD1, Y6794A)
[2] = molecular target: Lys345Ala SARS-CoV-2 Nsp15 (Severe acute respiratory syndrome coronavirus 2, UniProt P0DTD1, K6796A)
[3] = molecular target: Ser294Ala SARS-CoV-2 Nsp15 (Severe acute respiratory syndrome coronavirus 2, UniProt P0DTD1, S6745A)
[4] = molecular target: His250Ala SARS-CoV-2 Nsp15 (Severe acute respiratory syndrome coronavirus 2, UniProt P0DTD1, H6701A)

Measured: residual activity retained

O=C1NC(=S)SC1=CC=Cc1ccnc2ccccc12 [KCO237, 5-(3-quinolin-4-yl-allylidene)-2-thioxo-thiazolidine-4-one]
approximately 50%: all assays above
